# Experimental data: patent US11549123B2, “Plant EPSP synthases and methods of use” (PIONEER HI-BRED INTERNATIONAL, INC., priority 2015, dated 2023)
# Substitutions are numbered along the chain they refer to.
# What was measured:
# Type in all cases: biochemical
# [1] = biological target: Zea mays EPSPS variant 311S (Zea mays, UniProt O24566, P310S); test: EPSPS reaction rate with or without 10 uM glyphosate, 311S; conditions: pH 7; read-out: Reaction rate with 10 μM glyph, % no glyph; note: 50 µM PEP and S3P
# Zea mays EPSPS variant 311S, sequence (O24566 entry or part of it P310S): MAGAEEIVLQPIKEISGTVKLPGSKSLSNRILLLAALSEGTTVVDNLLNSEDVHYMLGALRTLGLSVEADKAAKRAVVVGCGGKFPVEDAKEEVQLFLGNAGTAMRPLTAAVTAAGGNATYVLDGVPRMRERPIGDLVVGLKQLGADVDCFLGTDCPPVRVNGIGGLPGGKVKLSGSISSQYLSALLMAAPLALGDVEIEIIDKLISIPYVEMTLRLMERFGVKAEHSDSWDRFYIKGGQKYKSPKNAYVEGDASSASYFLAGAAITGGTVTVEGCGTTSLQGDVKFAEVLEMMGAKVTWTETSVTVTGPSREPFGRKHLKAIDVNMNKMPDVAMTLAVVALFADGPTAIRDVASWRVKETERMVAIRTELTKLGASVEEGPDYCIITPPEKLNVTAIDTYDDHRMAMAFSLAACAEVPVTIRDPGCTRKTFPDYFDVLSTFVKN
# [2] = biological target: T1, Zea mays EPSPS, native, SEQ ID NO:2 (Zea mays, UniProt O24566); test: Rapid two-rate method for (kcat/KM)*KI (30 uM PEP, with or without 1 mM glyphosate), native maize; conditions: Zm native, [E] 0.007 uM, [Gly] 0.5 uM
# T1 construct: E. coli BL21(DE3), Ni-NTA purified
# T1 sequence (O24566 with tags, fused parts or gaps): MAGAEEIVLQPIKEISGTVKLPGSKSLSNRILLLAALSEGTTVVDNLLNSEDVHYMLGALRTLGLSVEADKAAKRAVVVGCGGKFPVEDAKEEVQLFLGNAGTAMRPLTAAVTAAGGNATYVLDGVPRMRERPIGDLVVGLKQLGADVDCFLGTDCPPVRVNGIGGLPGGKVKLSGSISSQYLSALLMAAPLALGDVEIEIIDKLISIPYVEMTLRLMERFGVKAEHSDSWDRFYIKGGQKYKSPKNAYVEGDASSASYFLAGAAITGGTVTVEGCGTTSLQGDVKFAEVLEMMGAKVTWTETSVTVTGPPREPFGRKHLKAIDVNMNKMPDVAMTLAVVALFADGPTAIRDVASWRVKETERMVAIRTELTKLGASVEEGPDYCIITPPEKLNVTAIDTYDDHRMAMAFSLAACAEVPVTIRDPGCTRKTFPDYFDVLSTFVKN
# Text: In the Michaelis-Menten equation for steady state reaction velocity with competitive inhibition, the term (kcat/KM)*KI cannot be isolated due to the KM and [S] terms in the denominator. However, if two rate measurements are made at different inhibitor concentrations, those terms can be eliminated by subtraction and (kcat/KM)*KI isolated, as follows:
# [formula] where v0 and v1 are initial velocities without and with inhibitor but at the same substrate and enzyme concentrations. Although Equations 2 and 3 are equally valid, to generate the data in Table 1, rate measurement was performed with and without inhibitor using Equation 3. Source of Reagents, Enzyme and Variants
# EPSPS activity was determined by quantifying the phosphate generated by the reaction. Release of phosphate was coupled to reaction with MESG, catalyzed by purine-nucleoside phosphorylase, using standard methods. The absorbance change that occurs was monitored continuously at 360 nm, where the extinction is 11,200 M-1 cm-1, with a Spectramax plate reader (Molecular Devices). […] The enzyme concentration was adjusted so as to generate sufficient signal without exceeding the limit for linear initial reaction rates. […]
# There are several practical considerations for accurately estimating (kcat/KM)*KI with the rapid method. […] Conditions can be set so that variants with a pre-determined minimal fitness level are accurately quantified. […]
# [3] = biological target: T2, Zea mays EPSPS variant Zm-T103I (Zea mays, UniProt O24566, T102I); test: Substrate saturation kinetic analysis with glyphosate, Zm-T103I
# T2 construct: native maize plus T103I; E. coli BL21(DE3), Ni-NTA purified
# T2 sequence (O24566 with tags, fused parts or gaps T102I): T1 sequence (O24566 with tags, fused parts or gaps) with T103I
# [4] = biological target: T3, Zea mays EPSPS variant Zm-P107S (Zea mays, UniProt O24566, P106S); test: Rapid two-rate method for (kcat/KM)*KI, Zm-P107S
# T3 construct: native maize plus P107S; E. coli BL21(DE3), Ni-NTA purified
# T3 sequence (O24566 with tags, fused parts or gaps P106S): T1 sequence (O24566 with tags, fused parts or gaps) with P107S
# Text: There are several practical considerations for accurately estimating (kcat/KM)*KI with the rapid method. […] 2) The inhibitor concentration must be adjusted so as to obtain a degree of inhibition that minimally amplifies the error in the term v0-vi in Equation 3. If inhibition is too little, v0-vi will be small, and the error in the multiplier vi×v0/(v0-vi) will be large. […] 3) Substrate concentration should be set at the approximate KM of the parental variant(s), subject to the sensitivity of the assay. High substrate concentration obscures sensitivity to the inhibitor and reduces stringency for capturing improvements in KM. Depending on the necessity for speed, there exists opportunity for customizing enzyme and inhibitor concentrations. […] The rapid method was repeated for those and obtained data that correlated better with data obtained by substrate saturation analysis. For screening purposes however, that correlation step is not necessary. Conditions can be set so that variants with a pre-determined minimal fitness level are accurately quantified.
# In Table 15, parameters above the heavy line for the rapid method were obtained under standard conditions. For variants shown below the heavy line, the rapid analysis was repeated with enzyme or glyphosate concentrations adjusted as needed to generate sufficient signal within the limits for linear initial rates.
compound,measurement,setting,value
"O=C(O)CNCP(=O)(O)O [glyphosate, N-phosphonomethylglycine]",activity at 10 µM,[1],4.37%
same,(kcat/KM)*KI,[2],11
same,Ki,[3],53 µM
same,(kcat/KM)*KI,"[3]; substrate saturation, Zm-T103I",99
same,(kcat/KM)*KI,"[4]; rapid method repeated, [E] 0.007 uM, [Gly] 5 uM",40
same,(kcat/KM)*KI,"[4]; rapid method, [E] 0.07 uM, [Gly] 1000 uM",72
